Molecular target: T1, SYK kinase (Homo sapiens, UniProt P43405)
T1 construct: purchased Invitrogen, Carlsbad
Assay: SYK Assay (OMNIA KINASE ASSAY, SOX peptide fluorescence)
Assay type: biochemical
Conditions: apparent Ki calculated from the IC50 using the Cheng-Prusoff equation; 1 mM ATP, 30° C.; read-out: SYK Activities: Ki
Method: In the assay OMNIA® KINASE ASSAY by Invitrogen Corporation (Carlsbad) the effect of invention of a compound on the phosphorylation is determined by measurement of fluorescence intensity of a chelation-enhanced fluorophore called SOX. Upon phosphorylation of the peptide by the kinase of interest, Mg2+ is chelated to form a bridge between the SOX moiety and the phosphate group that is transferred to the specific tyrosine on the peptide. The fluorescence intensity is directly proportional to the amount of peptide phosphorylation.
To the wells of an 384 well small volume plate (Greiner, Frickenhausen) are added (i) the compound under test in 5% DMSO/distilled water (2 μl), (ii) 16 μl of the master mix containing ATP, DTT, Kinase Reaction Buffer, Omina Peptide Substrate Tyr 7 resulting in a final concentration of 1 mM ATP, 0.2 mM DTT and 10 μM Peptide Substrate.
The Master Mix and the assay plate was incubated to reaction temperature before the measurement (30° C.). The reaction was started with addition of (iii) 2 μl 4 μg/ml SYK kinase (Invitrogen, Carlsbad). During measurement fluorescence intensitiy readings were collected using a TECAN M1000 at a wavelength of λex 360/λem 485 nm every 30 s for 30 minutes. The reaction velocity was plotted versus the inhibitor concentration to determine the […] using XLFit 5.0 (IDBS, Guildford) to fit to a sigmoidal dose response curve, and the apparent Ki values were calculated from the IC50 using the Cheng-Prusoff equation (Cheng, Y.; Prusoff, W. H. Biochem. Pharmacol. 22, 3099-3108, 1973).

Compound	Ki [nM]
COC(=O)c1cccc(-c2nc(Nc3ccc4c(c3)NC(=O)CCC4)c3[nH]ncc3n2)c1 [Example #217, methyl 3-(7-((2-oxo-2,3,4,5-tetrahydro-1H-benzo[b]azepin-8-yl)amino)-1H-pyrazolo[4,3-d]pyrimidin-5-yl)benzoate]	100 to 1000
COc1ccc(Nc2nc(-c3cccc(S(F)(F)(F)(F)F)c3)nc3cn[nH]c23)cc1OC [Example #219, N-(3,4-dimethoxyphenyl)-5-(3-(pentafluorosulfanyl)phenyl)-1H-pyrazolo[4,3-d]pyrimidin-7-amine]	100 to 1000
O=C1CCc2ccc(Nc3nc(-c4cccc(S(F)(F)(F)(F)F)c4)nc4cn[nH]c34)cc2N1 [Example #222, 7-((5-(3-(pentafluorosulfanyl)phenyl)-1H-pyrazolo[4,3-d]pyrimidin-7-yl)amino)-3,4-dihydroquinolin-2(1H)-one]	100 to 1000
CSc1cccc(-c2nc(Nc3ccc(N4CCOCC4)cc3)c3[nH]ncc3n2)c1 [Example #224, 5-(3-(methylthio)phenyl)-N-(4-morpholinophenyl)-1H-pyrazolo[4,3-d]pyrimidin-7-amine]	100 to 1000
CSc1cccc(-c2nc(Nc3ccc4c(c3)NC(=O)CC4)c3[nH]ncc3n2)c1 [Example #236, 7-((5-(3-(methylthio)phenyl)-1H-pyrazolo[4,3-d]pyrimidin-7-yl)amino)-3,4-dihydroquinolin-2(1H)-one]	10 to 100
COC(=O)c1ccc(-c2nc(Nc3ccc(N4CCOCC4)cc3)c3[nH]ncc3n2)cc1 [Example #242, methyl 4-(7-((4-morpholinophenyl)amino)-1H-pyrazolo[4,3-d]pyrimidin-5-yl)benzoate]	10 to 100
COc1ccc(Nc2nc(-c3cccc(S(C)(=O)=O)c3)nc3cn[nH]c23)cc1OC [Example #249, N-(3,4-dimethoxyphenyl)-5-(3-(methylsulfonyl)phenyl)-1H-pyrazolo[4,3-d]pyrimidin-7-amine]	10 to 100
CS(=O)(=O)c1cccc(Nc2nc(-c3cccc(S(C)(=O)=O)c3)nc3cn[nH]c23)c1 [Example #253, N,5-bis(3-(methylsulfonyl)phenyl)-1H-pyrazolo[4,3-d]pyrimidin-7-amine]	10 to 100
c1cc2ncc(-c3nc(Nc4ccc(N5CCOCC5)cc4)c4[nH]ncc4n3)cc2[nH]1 [Example #258, N-(4-morpholinophenyl)-5-(1H-pyrrolo[3,2-b]pyridin-6-yl)-1H-pyrazolo[4,3-d]pyrimidin-7-amine]	10 to 100
Cc1nc2cc(Nc3nc(-c4cnc5cc[nH]c5c4)nc4cn[nH]c34)ccc2[nH]1 [Example #259, N-(2-methyl-1H-benzo[d]imidazol-5-yl)-5-(1H-pyrrolo[3,2-b]pyridin-6-yl)-1H-pyrazolo[4,3-d]pyrimidin-7-amine]	100 to 1000
CN(C)S(=O)(=O)c1ccc(Nc2nc(-c3cccs3)nc3cn[nH]c23)cc1 [Example #260, N,N-dimethyl-4-((5-(thiophen-2-yl)-1H-pyrazolo[4,3-d]pyrimidin-7-yl)amino)benzenesulfonamide]	10 to 100
c1cc(Nc2nc(-c3cccs3)nc3cn[nH]c23)cc(-n2nccn2)c1 [Example #262, N-(3-(2H-1,2,3-triazol-2-yl)phenyl)-5-(thiophen-2-yl)-1H-pyrazolo[4,3-d]pyrimidin-7-amine]	100 to 1000
c1csc(-c2nc(Nc3ccc(-n4nccn4)cc3)c3[nH]ncc3n2)c1 [Example #263, N-(4-(2H-1,2,3-triazol-2-yl)phenyl)-5-(thiophen-2-yl)-1H-pyrazolo[4,3-d]pyrimidin-7-amine]	100 to 1000
CN(C)S(=O)(=O)c1cccc(Nc2nc(-c3cccs3)nc3cn[nH]c23)c1 [Example #264, N,N-dimethyl-3-((5-(thiophen-2-yl)-1H-pyrazolo[4,3-d]pyrimidin-7-yl)amino)benzenesulfonamide]	100 to 1000
O=S(=O)(c1cccc(Nc2nc(-c3cccs3)nc3cn[nH]c23)c1)N1CCOCC1 [Example #266, N-(3-(morpholinosulfonyl)phenyl)-5-(thiophen-2-yl)-1H-pyrazolo[4,3-d]pyrimidin-7-amine]	100 to 1000
O=S(=O)(c1cccc(Nc2nc(-c3cccs3)nc3cn[nH]c23)c1)C(F)(F)F [Example #267, 5-(thiophen-2-yl)-N-(3-((trifluoromethyl)sulfonyl)phenyl)-1H-pyrazolo[4,3-d]pyrimidin-7-amine]	100 to 1000
COc1ccc(Nc2nc(-c3ccc(F)cc3)nc3cn[nH]c23)cc1OC [Example #270, N-(3,4-dimethoxyphenyl)-5-(4-fluorophenyl)-1H-pyrazolo[4,3-d]pyrimidin-7-amine]	10 to 100
COc1ccc(Nc2nc(-c3ccc(F)c(F)c3)nc3cn[nH]c23)cc1OC [Example #272, 5-(3,4-difluorophenyl)-N-(3,4-dimethoxyphenyl)-1H-pyrazolo[4,3-d]pyrimidin-7-amine]	100 to 1000
Fc1ccc(-c2nc(Nc3ccc(N4CCOCC4)cc3)c3[nH]ncc3n2)cc1F [Example #273, 5-(3,4-difluorophenyl)-N-(4-morpholinophenyl)-1H-pyrazolo[4,3-d]pyrimidin-7-amine]	10 to 100
COc1ccc(Nc2nc(-c3cc(F)cc(F)c3)nc3cn[nH]c23)cc1OC [Example #274, 5-(3,5-difluorophenyl)-N-(3,4-dimethoxyphenyl)-1H-pyrazolo[4,3-d]pyrimidin-7-amine]	100 to 1000

Next, values leading:

Ki [nM]	Compound
10 to 100	FS(F)(F)(F)(F)c1cccc(-c2nc(Nc3ccc(N4CCOCC4)cc3)c3[nH]ncc3n2)c1 [Example #220, 5-(3-(pentafluorosulfanyl)phenyl)-N-(4-morpholinophenyl)-1H-pyrazolo[4,3-d]pyrimidin-7-amine]
10 to 100	CN1CCN(c2ccc(Nc3nc(-c4cccc(S(F)(F)(F)(F)F)c4)nc4cn[nH]c34)cc2)CC1 [Example #221, N-(4-(4-methylpiperazin-1-yl)phenyl)-5-(3-(pentafluorosulfanyl)phenyl)-1H-pyrazolo[4,3-d]pyrimidin-7-amine]
10 to 100	COc1ccc(Nc2nc(-c3cccc(SC)c3)nc3cn[nH]c23)cc1OC [Example #223, N-(3,4-dimethoxyphenyl)-5-(3-(methylthio)phenyl)-1H-pyrazolo[4,3-d]pyrimidin-7-amine]
10 to 100	COc1ccc(Nc2nc(-c3cccc(OC(F)(F)F)c3)nc3cn[nH]c23)cc1OC [Example #226, N-(3,4-dimethoxyphenyl)-5-(3-(trifluoromethoxy)phenyl)-1H-pyrazolo[4,3-d]pyrimidin-7-amine]
10 to 100	FC(F)(F)Oc1cccc(-c2nc(Nc3ccc(N4CCOCC4)cc3)c3[nH]ncc3n2)c1 [Example #227, N-(4-morpholinophenyl)-5-(3-(trifluoromethoxy)phenyl)-1H-pyrazolo[4,3-d]pyrimidin-7-amine]
10 to 100	COc1ccc(Nc2nc(-c3cccc(C(F)(F)F)c3)nc3cn[nH]c23)cc1OC [Example #228, N-(3,4-dimethoxyphenyl)-5-(3-(trifluoromethyl)phenyl)-1H-pyrazolo[4,3-d]pyrimidin-7-amine]
10 to 100	FC(F)(F)c1cccc(-c2nc(Nc3ccc(N4CCOCC4)cc3)c3[nH]ncc3n2)c1 [Example #229, N-(4-morpholinophenyl)-5-(3-(trifluoromethyl)phenyl)-1H-pyrazolo[4,3-d]pyrimidin-7-amine]
10 to 100	COc1ccc(Nc2nc(-c3cccc(Cl)c3)nc3cn[nH]c23)cc1OC [Example #230, 5-(3-chlorophenyl)-N-(3,4-dimethoxyphenyl)-1H-pyrazolo[4,3-d]pyrimidin-7-amine]
10 to 100	Clc1cccc(-c2nc(Nc3ccc(N4CCOCC4)cc3)c3[nH]ncc3n2)c1 [Example #231, 5-(3-chlorophenyl)-N-(4-morpholinophenyl)-1H-pyrazolo[4,3-d]pyrimidin-7-amine]
< 10	O=C(O)c1ccc(-c2nc(Nc3ccc(N4CCOCC4)cc3)c3[nH]ncc3n2)cc1 [Example #243, 4-(7-((4-morpholinophenyl)amino)-1H-pyrazolo[4,3-d]pyrimidin-5-yl)benzoic acid]
< 10	COc1ccc(Nc2nc(-c3ccc(C(=O)O)cc3)nc3cn[nH]c23)cc1OC [Example #244, 4-(7-((3,4-dimethoxyphenyl)amino)-1H-pyrazolo[4,3-d]pyrimidin-5-yl)benzoic acid]
< 10	Cc1nc2cc(Nc3nc(-c4cccs4)nc4cn[nH]c34)ccc2[nH]1 [Example #245, N-(2-methyl-1H-benzo[d]imidazol-5-yl)-5-(thiophen-2-yl)-1H-pyrazolo[4,3-d]pyrimidin-7-amine]
< 10	CC(=O)N1CCN(c2ccc(Nc3nc(-c4cccc(S(C)(=O)=O)c4)nc4cn[nH]c34)cc2)CC1 [Example #246, 1-(4-(4-((5-(3-(methylsulfonyl)phenyl)-1H-pyrazolo[4,3-d]pyrimidin-7-yl)amino)phenyl)piperazin-1-yl)ethan-1-one]
< 10	CC(=O)N1CCN(c2ccc(Nc3nc(-c4cnc5cc[nH]c5c4)nc4cn[nH]c34)cc2)CC1 [Example #256, 1-(4-(4-((5-(1H-pyrrolo[3,2-b]pyridin-6-yl)-1H-pyrazolo[4,3-d]pyrimidin-7-yl)amino)phenyl)piperazin-1-yl)ethan-1-one]
